Each structure is given as a SMILES string.

For orientation: EC50 means the midpoint of the concentration-response curve.

The test system of assay [1] is glioblastoma brain cancer cell line LN-229. Kind of assay: Cytotoxicity assay (CCK8 viability), LN-229. It counts as cell-based. The note with it: Homo sapiens, LN-229 cells, 18 hours drug incubation, 1% FBS media. On the procedure:
(§1) Cytoxocity assay: Cells were seeded on a 96 well polystyrene plate in full serum media at a density of 75,000 cells per milliliter, 100 μL per well. Plates were incubated at 37° C. and 5% CO2 for 24 hours to allow cell attachment. Drug solutions were prepared in DMSO at 100× concentration and mixed 1:100 in 1% FBS media to yield the desired concentration. Drug-media mixtures were vortexed immediately prior to administration to cells. Full serum media was removed and replaced with drug-media mixtures and incubated for 18 hours. 10 μL of Cell Counting Kit 8 (CCK8, Dojindo# CK04-11) was added to each well to colormetrically assess viability. After 2-4 hours of incubation with the CCK8 dye, absorbance was read at 450 nm by a BioTek Synergy 2 plate reader.
(§2) The cytotoxicity of selected compounds against the glioblastoma brain cancer cell line LN-229 is depicted in Table 1.

Assay [2] has as its system glioblastoma brain cancer cell line DBTRG05MG. The assay can be described thus: Cytotoxicity assay (CCK8 viability), DBTRG05MG. It counts as cell-based. The note with it: Homo sapiens, DBTRG-05MG, DBTRG05MG cells, 18 hours drug incubation, 1% FBS media. Here is the method: as §1, §2

On to `CCCCCCC(C)(C)c1cc(O)c(-c2cccc(OC)c2)c(O)n1` [Compound 8m, 3-(3-Methoxyphenyl)-6-(2-methyloctan-2-yl)pyridine-2,4-diol], for which the EC50 in assay [1] amounted to 41.7 µM; in assay [2], 56 µM. As to `CCCCCCC(C)(C)c1cc(O)c(-c2ccccc2)c(O)n1` [Compound 8j, 6-(2-Methyloctan-2-yl)-3-phenylpyridine-2,4-diol], the values for the EC50 in assay [1] and in assay [2] were 52.6 µM and 55.7 µM, respectively.

For the compound `Cc1cccc(-c2c(O)cc(C(C)(C)C3CCCCC3)nc2O)c1` [Compound 8f, 6-(2-Cyclohexylpropan-2-yl)-3-m-tolylpyridine-2,4-diol], the EC50 in assay [1] was 71.1 µM. `CC(C)(c1cc(O)c(-c2cc(Cl)cc(Cl)c2)c(O)n1)C1CCCCC1` [Compound 8b, 6-(2-Cyclohexylpropan-2-yl)-3-(3,5-dichlorophenyl)pyridine-2,4-diol]: the figures for the EC50 in assay [1] and in assay [2] were 5.9 µM and 9.8 µM, respectively. Consider `CCCCCCC(C)(C)c1cc(O)c(-c2cc(Cl)cc(Cl)c2)c(O)n1` [Compound 8e, 3-(3,5-dichlorophenyl)-6-(2-methyloctan-2-yl)pyridine-2,4-diol], for which the EC50 stood at 1.6 µM in assay [1] and 4.1 µM in assay [2].

As to `CCCCCCC(C)(C)c1cc(O)c(Cc2ccccc2)c(O)n1` [Compound 8n, 3-Benzyl-6-(2-methyloctan-2-yl)pyridine-2,4-diol], the EC50 in assay [1] turned out to be 13.1 µM; in assay [2], 25.2 µM. As to `CCCCCCC(C)(C)c1nc(O)c(-c2cccc(C)c2)c(O)n1` [Compound 8h, 2-(2-Methyloctan-2-yl)-5-m-tolylpyrimidine-4,6-diol], the EC50 in assay [1] came out at 24.6 µM; in assay [2], 29.2 µM.

Turning to `CC(C)(c1ccccc1)c1cc(O)c(-c2cc(Cl)cc(Cl)c2)c(O)n1` [Compound 8c, 3-(3,5-Dichlorophenyl)-6-(2-phenylpropan-2-yl)pyridine-2,4-diol], the figures for the EC50 in assay [1] and in assay [2] were 29.2 µM and 33.6 µM, respectively.

The record behind these values is patent US8809373B2, “Pyridine non-classical cannabinoid compounds and related methods of use” (priority 2008, dated 2014).
